In patent publication US9408856B2, “Topical steroidal formulations” (Temple University—Of The Commonwealth System of Higher …, priority 2008, dated 2016):
“Also recorded” adds a separate entry of the source.

Legend:
[1] = tested on: dexamethasone-induced thymic and splenic atrophy; conditions: C3H/HeN mice; 60 mg/kg s.c. 3 days; single DEX dose 1.6 mg; Blauer et al. 1991; cited from earlier work
[2] = tested on: dexamethasone-induced thymic and splenic atrophy; assay: Dexamethasone-induced thymic and splenic atrophy in mice; format: in vivo, CD-1 mice; conditions: for protection against DEX-induced thymic and splenic atrophy: CD-1 mice
Experimental: Administration of dehydroepiandrosterone (DHEA, 60 mg/kg, s.c.) for three days partially reverse thymic and splenic atrophy induced by a single injection of dexamethasone (1.6 mg/mouse). In this experiment, the efficacy of either 10 mg/kg or 20 mg/kg DHEA administered s.c. versus the effect of 10 mg/kg or 20 mg/kg fluasterone was investigated.
5% Cremophor (polyethoxylated castor oil; Sigma Chemicals)-95% saline vehicle was prepared using 95 mL of sterile 0.9% NaCl (filtered through sterile 0.22 micron filter) and 5 mL of Cremophor. The Cremophor was dissolved by swirling for approximately 5 minutes.
Dexamethasone solutions were prepared by dissolving dexamethasone (Sigma Chemicals) in absolute ethanol. For example, 71.9 mg of dexamethasone was dissolved in 2.9 mL of absolute ethanol. In order to prevent precipitation, the solution was kept on a hotplate between injections.
For the 10 mg/kg suspension, 25.7 mg of DHEA was weighed out, transferred to a glass scintillation vial, and 10.3 mL of the Cremophor-saline vehicle was added. The DHEA suspension was homogenized using a Tissumizer at 80% power for 30 sec. The Tissumizer was rinsed with 70% ethanol prior to homogenization. After the 10 mg/kg DHEA suspension was homogenized the probe was rinsed 2× with 50 mL of absolute ethanol, then with 50 mL of 70% ethanol, and then dried with sterile gauze. For the 20 mg/kg DHEA suspension, 50.9 mg DHEA was suspended in 10.2 mL of Cremophor-saline vehicle.
19.4 mg of fluasterone was weighed out and transferred to a glass scintillation vial. 7.8 mL of Cremophor-saline vehicle was added to the vial and the contents of the vial were homogenized with a Tissumizer as described previously. Prior to preparing the 20 mg/kg fluasterone, the probe was rinsed 2× with 50 mL of absolute ethanol and 1× with 50 mL of 70% ethanol. For the 20 mg/kg suspension, 47.0 mg was weighed out and transferred to a glass scintillation vial. 9.4 mL of Cremophor-saline vehicle was added to the vial and the contents of the vial were homogenized with a Tissumizer as described above.
Female CD-1 mice, 43-45 days old, were obtained from Charles River Laboratories. The mice were housed 5 per cage in plastic shoebox cages with ad libitum access to Purina chow 5015 and water in the Pharmacy CAF with 12 hr of alternating light and darkness.
Prior to the experiment the mice were weighed, separated into 6 groups containing 5 mice each and treated as follows:
Mice were treated s.c. with 0.1 mL of 5% Cremophor-95% saline for three days. On the third day, the mice were also treated s.c. with 1.6 mg of dexamethasone dissolved in 0.06 mL of absolute. ethanol.
Mice were treated s.c. with 0.25 mg of DHEA suspended in 0.1 mL of 5% Cremophor-95% saline for three days. On the third day, the mice were also treated s.c. with 1.6 mg of dexamethasone dissolved in 0.06 mL of absolute ethanol.
Mice were treated s.c. with 0.5 mg of DHEA suspended in 0.1 mL of 5% Cremophor-95% saline for three days. On the third day, the mice were also treated s.c. with 1.6 mg of dexamethasone dissolved in 0.06 mL of absolute ethanol.
Mice were treated s.c. with 0.25 mg of fluasterone suspended in 0.1 mL of 5% Cremophor-95% saline for three days. On the third day, the mice were also treated s.c. with 1.6 mg of dexamethasone dissolved in 0.06 mL of absolute ethanol.
Mice were treated s.c. with 0.5 mg of fluasterone suspended in 0.1 mL of 5% Cremophor-95% saline for three days. On the third day, the mice were also treated s.c. with 1.6 mg of dexamethasone dissolved in 0.06 mL of absolute ethanol.
All s.c. injections were made in the nape. All mice were lightly anesthetized while the s.c. injections were done.
Twenty-four hours after dexamethasone treatment, the mice were euthanized by an overdose of isoflurane. The spleen and thymus were removed, cleaned of any adventitia, rinsed, blotted on filter paper, and weighed. […]

[3] = Table 12, 10 mg/kg s.c. 3 days + dexamethasone 1.6 mg s.c. on day 3, 24 h after dexamethasone
[4] = Table 12, 20 mg/kg s.c. 3 days + dexamethasone 1.6 mg s.c. on day 3, 24 h after dexamethasone
[5] = Table 14, micronized steroid 20 mg/kg + dexamethasone
[6] = Table 14, micronized steroid 60 mg/kg + dexamethasone

For C[C@]12CC[C@H](O)CC1=CC[C@@H]1[C@@H]2CC[C@]2(C)C(=O)CC[C@@H]12 [DHEA, dehydroepiandrosterone, reference compound], the “effect on DEX-induced thymic and splenic atrophy” value [1] is listed as “significantly reduces”, the “protection against DEX-induced thymic and splenic atrophy” value (“protection” below) ([2]; 10 mg/kg) is listed as “inactive” and the “protection” value ([2]; 20 mg/kg) is listed as “no apparent protection; also recorded: inactive”. The “protection” value ([2]; 60 mg/kg) was “significantly protected”, the “Body Weight” value [2, 3] was 23.7 ± 1.0 and the Spleen wt [2, 3] was 46.4 ± 3.7. For the same compound, the “Spleen wt/BW” value [2, 3] was 2.0 ± 0.2, the Thymus wt [2, 3] was 31.7 ± 2.6 and the “Thymus wt/BW” value [2, 3] was 1.3 ± 0.2. The “Body Weight” value [2, 4] was 24.5 ± 2.1, the Spleen wt [2, 4] was 51.4 ± 2.2 and the “Spleen wt/BW” value [2, 4] was 2.1 ± 0.2. For the same compound, the Thymus wt [2, 4] was 36.6 ± 5.2, the “Thymus wt/BW” value [2, 4] was 1.5 ± 0.2 and the “Body Weight” value [2, 5] was 27.4 ± 4.0. For the same compound, the Spleen wt [2, 5] was 56.8 ± 8.1, the “Spleen wt/BW” value [2, 5] was 2.1 ± 0.1 and the Thymus wt [2, 5] was 39.3 ± 4.1. The “Thymus wt/BW” value [2, 5] was 1.4 ± 0.1, the “Body Weight” value [2, 6] was 27.0 ± 3.1 and the Spleen wt [2, 6] was 79.9 ± 16.0. The “Spleen wt/BW” value [2, 6] was 3.0 ± 0.4, the Thymus wt [2, 6] was 63.2 ± 7.8 and the “Thymus wt/BW” value [2, 6] was 2.3 ± 0.2. The “Approximate Potency Compared to Fluasterone in Protecting Against DEX-induced Thymic and Splenic Involution” value ([2]; fluasterone = 1, mice) was “about ⅙”.
